PMC8534050, “Discovery of a Potent and Highly Isoform-Selective Inhibitor of the Neglected Ribosomal Protein S6 Kinase Beta 2 (S6K2)” (Cancers, 2021)

Legend:
Test in all cases: DSF thermal shift assay
Format in all cases: binding
Details in all cases: inhibitor 10 μM, protein 2 μM
CAMK1D = biological target: T1, CAMK1D (Homo sapiens, UniProt Q8IU85)
T1 construct: purchased in-house DSF (thermal shift) panel per Fedorov et al; IC50 follow-up at Reaction Biology Corp
Procedure: (§1) Differences in the melting temperature (ΔTm) were measured as described by Fedorov et al.. Purified proteins were buffered in 25 mM HEPES (pH 7.5), 500 mM NaCl and were assayed in a 384-well plate with a final protein concentration of 2 μM in 10 μL assay volume. Inhibitors were added to a final concentration of 10 μM using an ECHO 550 acoustic dispenser (Labcyte, San José, CA, USA). As a fluorescence probe, SYPRO-Orange (Molecular Probes, Eugene, OR, USA) was added in a 1:5000 dilution. […] Data were analyzed through Boltzmann equation in the Protein Thermal Shift software (Applied Biosystems, Waltham, MA, USA). Samples were measured in technical duplicates.

STK38L = biological target: T2, STK38L (Homo sapiens, UniProt Q9Y2H1)
T2 construct: purchased in-house DSF (thermal shift) panel per Fedorov et al; IC50 follow-up at Reaction Biology Corp
Procedure: as §1

BMPR2 = biological target: T3, BMPR2 (Homo sapiens, UniProt Q13873)
T3 construct: purchased in-house DSF (thermal shift) panel per Fedorov et al
Procedure: as §1

RPS6KA1 = biological target: T4, RPS6KA1 (Homo sapiens, UniProt Q15418)
T4 construct: purchased in-house DSF (thermal shift) panel per Fedorov et al
Procedure: as §1

MAPK10 = biological target: T5, MAPK10 (Homo sapiens, UniProt P53779)
T5 construct: purchased in-house DSF (thermal shift) panel per Fedorov et al
T5 sequence (P53779 whole entry): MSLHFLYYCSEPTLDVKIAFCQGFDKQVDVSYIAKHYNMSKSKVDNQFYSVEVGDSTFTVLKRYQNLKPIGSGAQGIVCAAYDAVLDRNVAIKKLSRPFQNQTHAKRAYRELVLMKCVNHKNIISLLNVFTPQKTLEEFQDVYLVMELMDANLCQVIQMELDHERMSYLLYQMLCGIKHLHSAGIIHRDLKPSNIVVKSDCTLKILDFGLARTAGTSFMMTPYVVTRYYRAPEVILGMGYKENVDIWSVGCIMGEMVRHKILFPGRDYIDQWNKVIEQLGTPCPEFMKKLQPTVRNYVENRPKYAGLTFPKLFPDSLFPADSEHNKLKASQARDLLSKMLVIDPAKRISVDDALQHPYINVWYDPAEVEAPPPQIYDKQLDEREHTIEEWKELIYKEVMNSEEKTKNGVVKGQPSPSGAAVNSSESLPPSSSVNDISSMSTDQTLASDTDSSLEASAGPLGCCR
Procedure: as §1

CHEK2 = biological target: T6, CHEK2 (Homo sapiens, UniProt O96017)
T6 construct: purchased in-house DSF (thermal shift) panel per Fedorov et al; IC50 follow-up at Reaction Biology Corp
Procedure: as §1

PIM3 = biological target: T7, PIM3 (Homo sapiens, UniProt Q86V86)
T7 construct: purchased in-house DSF (thermal shift) panel per Fedorov et al; IC50 follow-up at Reaction Biology Corp
Procedure: as §1

BMP2K = biological target: T8, BMP2K (Homo sapiens, UniProt Q9NSY1)
T8 construct: purchased in-house DSF (thermal shift) panel per Fedorov et al
T8 sequence (Q9NSY1 whole entry): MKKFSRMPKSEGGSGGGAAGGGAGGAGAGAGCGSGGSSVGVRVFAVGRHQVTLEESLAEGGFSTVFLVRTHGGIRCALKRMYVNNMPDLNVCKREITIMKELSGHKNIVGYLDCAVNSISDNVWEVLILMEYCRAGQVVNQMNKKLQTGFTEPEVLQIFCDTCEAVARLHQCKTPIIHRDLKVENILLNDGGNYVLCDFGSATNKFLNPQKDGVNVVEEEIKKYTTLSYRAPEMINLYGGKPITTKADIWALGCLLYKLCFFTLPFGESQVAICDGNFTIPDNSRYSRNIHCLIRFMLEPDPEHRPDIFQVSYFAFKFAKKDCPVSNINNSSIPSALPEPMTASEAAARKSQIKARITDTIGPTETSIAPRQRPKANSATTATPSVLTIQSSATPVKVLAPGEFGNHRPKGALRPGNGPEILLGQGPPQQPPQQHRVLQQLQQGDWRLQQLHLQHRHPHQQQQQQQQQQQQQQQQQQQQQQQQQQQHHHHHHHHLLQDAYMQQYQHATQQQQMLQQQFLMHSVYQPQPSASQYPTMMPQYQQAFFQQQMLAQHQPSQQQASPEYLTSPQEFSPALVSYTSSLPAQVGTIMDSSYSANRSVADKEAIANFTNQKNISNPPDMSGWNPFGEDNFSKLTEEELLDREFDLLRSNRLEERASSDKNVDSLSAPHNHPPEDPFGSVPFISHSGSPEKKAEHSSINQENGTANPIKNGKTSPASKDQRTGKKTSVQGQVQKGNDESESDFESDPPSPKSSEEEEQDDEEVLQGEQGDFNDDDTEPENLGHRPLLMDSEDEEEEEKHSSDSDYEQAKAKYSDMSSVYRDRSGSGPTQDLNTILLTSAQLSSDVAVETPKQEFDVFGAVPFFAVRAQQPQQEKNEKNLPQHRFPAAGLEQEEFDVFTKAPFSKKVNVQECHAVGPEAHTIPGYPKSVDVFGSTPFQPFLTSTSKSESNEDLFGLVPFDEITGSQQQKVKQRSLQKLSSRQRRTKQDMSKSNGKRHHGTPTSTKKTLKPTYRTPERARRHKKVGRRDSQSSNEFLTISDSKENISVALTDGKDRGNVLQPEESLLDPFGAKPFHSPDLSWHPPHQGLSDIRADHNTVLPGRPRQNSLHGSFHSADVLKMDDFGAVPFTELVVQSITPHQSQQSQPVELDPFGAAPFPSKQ
Procedure: as §1

BRPF1 = biological target: T9, BRPF1 (Homo sapiens, UniProt P55201)
T9 construct: purchased in-house DSF (thermal shift) panel per Fedorov et al; IC50 follow-up at Reaction Biology Corp
Procedure: as §1

PKMYT1 = biological target: T10, PKMYT1 (Homo sapiens, UniProt Q99640)
T10 construct: purchased in-house DSF (thermal shift) panel per Fedorov et al; IC50 follow-up at Reaction Biology Corp
T10 sequence (Q99640 whole entry): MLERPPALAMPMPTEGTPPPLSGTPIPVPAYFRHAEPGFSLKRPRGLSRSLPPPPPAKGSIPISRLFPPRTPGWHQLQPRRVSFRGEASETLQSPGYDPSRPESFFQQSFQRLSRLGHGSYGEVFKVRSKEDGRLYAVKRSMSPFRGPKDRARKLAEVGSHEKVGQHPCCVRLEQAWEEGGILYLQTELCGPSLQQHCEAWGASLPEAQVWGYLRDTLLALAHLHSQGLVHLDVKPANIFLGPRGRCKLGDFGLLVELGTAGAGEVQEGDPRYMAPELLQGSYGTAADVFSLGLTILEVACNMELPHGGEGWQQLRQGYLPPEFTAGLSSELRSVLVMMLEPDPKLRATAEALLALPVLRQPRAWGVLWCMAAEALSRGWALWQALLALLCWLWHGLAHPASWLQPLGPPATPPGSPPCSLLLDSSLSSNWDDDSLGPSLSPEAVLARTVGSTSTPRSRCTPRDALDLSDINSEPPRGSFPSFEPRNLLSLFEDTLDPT
Procedure: as §1

CLK1 = biological target: T11, CLK1 (Homo sapiens, UniProt P49759)
T11 construct: purchased in-house DSF (thermal shift) panel per Fedorov et al; IC50 follow-up at Reaction Biology Corp
Procedure: as §1

FES = biological target: T12, FES (Homo sapiens, UniProt P07332)
T12 construct: purchased in-house DSF (thermal shift) panel per Fedorov et al; IC50 follow-up at Reaction Biology Corp
Procedure: as §1

GAK = biological target: T13, GAK (Homo sapiens, UniProt O14976)
T13 construct: purchased in-house DSF (thermal shift) panel per Fedorov et al; IC50 follow-up at Reaction Biology Corp
Procedure: as §1

MAPK14 = biological target: T14, MAPK14 (Homo sapiens, UniProt Q16539)
T14 construct: purchased in-house DSF (thermal shift) panel per Fedorov et al
Procedure: as §1

FGFR3 = biological target: T15, FGFR3 (Homo sapiens, UniProt P22607)
T15 construct: purchased in-house DSF (thermal shift) panel per Fedorov et al
Procedure: as §1

CDK2 = biological target: T16, CDK2 (Homo sapiens, UniProt P24941)
T16 construct: purchased in-house DSF (thermal shift) panel per Fedorov et al; IC50 follow-up at Reaction Biology Corp
Procedure: as §1

ABL1 = biological target: T17, ABL1 (Homo sapiens, UniProt P00519)
T17 construct: purchased in-house DSF (thermal shift) panel per Fedorov et al; IC50 follow-up at Reaction Biology Corp
Procedure: as §1

SRC = biological target: T18, SRC (Homo sapiens, UniProt P12931)
T18 construct: purchased in-house DSF (thermal shift) panel per Fedorov et al
Procedure: as §1

MAPKAPK2 = biological target: T19, MAPKAPK2 (Homo sapiens, UniProt P49137)
T19 construct: purchased in-house DSF (thermal shift) panel per Fedorov et al; IC50 follow-up at Reaction Biology Corp
Procedure: as §1

FGFR2 = biological target: T20, FGFR2 (Homo sapiens, UniProt P21802)
T20 construct: purchased in-house DSF (thermal shift) panel per Fedorov et al
Procedure: as §1

MAPK15 = biological target: T21, MAPK15 (Homo sapiens, UniProt Q8TD08)
T21 construct: purchased in-house DSF (thermal shift) panel per Fedorov et al
T21 sequence (Q8TD08 whole entry): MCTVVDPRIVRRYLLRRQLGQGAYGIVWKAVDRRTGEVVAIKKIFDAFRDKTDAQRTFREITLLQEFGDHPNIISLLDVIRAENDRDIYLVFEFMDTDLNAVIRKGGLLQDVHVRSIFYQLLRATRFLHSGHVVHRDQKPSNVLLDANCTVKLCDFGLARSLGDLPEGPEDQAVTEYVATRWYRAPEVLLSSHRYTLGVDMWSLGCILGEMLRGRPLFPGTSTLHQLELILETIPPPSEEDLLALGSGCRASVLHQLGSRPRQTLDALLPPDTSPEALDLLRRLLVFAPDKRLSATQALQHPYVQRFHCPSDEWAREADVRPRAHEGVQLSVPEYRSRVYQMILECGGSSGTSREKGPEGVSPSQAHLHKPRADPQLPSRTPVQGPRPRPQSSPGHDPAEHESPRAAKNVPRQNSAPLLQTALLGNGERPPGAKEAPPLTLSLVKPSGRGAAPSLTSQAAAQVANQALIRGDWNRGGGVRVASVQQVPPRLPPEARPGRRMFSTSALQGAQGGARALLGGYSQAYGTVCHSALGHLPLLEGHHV
Procedure: as §1

NEK1 = biological target: T22, NEK1 (Homo sapiens, UniProt Q96PY6)
T22 construct: purchased in-house DSF (thermal shift) panel per Fedorov et al
T22 sequence (Q96PY6 whole entry): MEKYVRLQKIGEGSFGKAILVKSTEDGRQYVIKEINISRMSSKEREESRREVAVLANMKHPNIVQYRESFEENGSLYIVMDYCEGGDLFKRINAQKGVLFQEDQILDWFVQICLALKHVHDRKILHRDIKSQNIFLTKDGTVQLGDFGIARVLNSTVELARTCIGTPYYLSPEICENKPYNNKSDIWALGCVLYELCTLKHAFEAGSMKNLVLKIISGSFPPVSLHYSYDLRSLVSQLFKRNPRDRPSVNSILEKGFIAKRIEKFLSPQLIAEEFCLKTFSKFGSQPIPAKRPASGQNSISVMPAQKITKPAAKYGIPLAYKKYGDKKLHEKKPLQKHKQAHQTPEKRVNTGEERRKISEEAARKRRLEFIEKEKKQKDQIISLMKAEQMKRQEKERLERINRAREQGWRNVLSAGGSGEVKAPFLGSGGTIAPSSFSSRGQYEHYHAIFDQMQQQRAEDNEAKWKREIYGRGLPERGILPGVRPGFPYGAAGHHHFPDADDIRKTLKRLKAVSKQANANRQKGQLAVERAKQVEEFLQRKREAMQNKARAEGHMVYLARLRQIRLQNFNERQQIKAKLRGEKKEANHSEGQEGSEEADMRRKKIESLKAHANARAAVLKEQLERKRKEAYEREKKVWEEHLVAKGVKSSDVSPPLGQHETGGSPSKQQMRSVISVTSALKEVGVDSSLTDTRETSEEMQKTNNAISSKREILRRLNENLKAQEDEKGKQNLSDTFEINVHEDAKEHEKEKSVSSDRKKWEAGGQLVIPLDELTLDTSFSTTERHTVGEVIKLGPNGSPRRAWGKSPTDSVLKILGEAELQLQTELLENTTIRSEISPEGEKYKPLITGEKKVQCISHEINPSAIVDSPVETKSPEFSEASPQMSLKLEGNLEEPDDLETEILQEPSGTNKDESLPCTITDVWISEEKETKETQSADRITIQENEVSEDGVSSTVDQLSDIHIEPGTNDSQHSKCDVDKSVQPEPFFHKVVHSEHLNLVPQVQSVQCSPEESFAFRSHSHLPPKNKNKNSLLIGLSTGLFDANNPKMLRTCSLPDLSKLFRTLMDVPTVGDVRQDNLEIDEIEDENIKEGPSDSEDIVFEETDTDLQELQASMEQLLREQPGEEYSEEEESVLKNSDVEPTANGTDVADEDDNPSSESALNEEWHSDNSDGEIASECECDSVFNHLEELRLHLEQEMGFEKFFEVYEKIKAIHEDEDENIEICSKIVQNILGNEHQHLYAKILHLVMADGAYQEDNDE
Procedure: as §1

DYRK2 = biological target: T23, DYRK2 (Homo sapiens, UniProt Q92630)
T23 construct: purchased in-house DSF (thermal shift) panel per Fedorov et al
Procedure: as §1

AURKB = biological target: T24, AURKB (Homo sapiens, UniProt Q96GD4)
T24 construct: purchased in-house DSF (thermal shift) panel per Fedorov et al
Procedure: as §1

CAMK2D = biological target: T25, CAMK2D (Homo sapiens, UniProt Q13557)
T25 construct: purchased in-house DSF (thermal shift) panel per Fedorov et al
Procedure: as §1

BMX = biological target: T26, BMX (Homo sapiens, UniProt P51813)
T26 construct: purchased in-house DSF (thermal shift) panel per Fedorov et al; IC50 follow-up at Reaction Biology Corp
Procedure: as §1

MAPK1 = biological target: T27, MAPK1 (Homo sapiens, UniProt P28482)
T27 construct: purchased in-house DSF (thermal shift) panel per Fedorov et al; IC50 follow-up at Reaction Biology Corp
T27 sequence (P28482 whole entry): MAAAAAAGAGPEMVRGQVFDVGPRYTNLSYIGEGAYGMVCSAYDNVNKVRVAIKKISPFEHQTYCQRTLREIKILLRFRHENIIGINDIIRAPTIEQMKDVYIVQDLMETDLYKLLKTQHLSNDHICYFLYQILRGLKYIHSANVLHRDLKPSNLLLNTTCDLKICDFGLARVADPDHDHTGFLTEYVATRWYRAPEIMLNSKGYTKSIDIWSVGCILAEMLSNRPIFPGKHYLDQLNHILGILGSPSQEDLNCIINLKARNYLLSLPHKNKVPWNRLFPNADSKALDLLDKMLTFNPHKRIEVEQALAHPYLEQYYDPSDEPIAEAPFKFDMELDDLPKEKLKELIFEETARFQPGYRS
Procedure: as §1

PHKG2 = biological target: T28, PHKG2 (Homo sapiens, UniProt P15735)
T28 construct: purchased in-house DSF (thermal shift) panel per Fedorov et al
Procedure: as §1

GSK3B = biological target: T29, GSK3B (Homo sapiens, UniProt P49841)
T29 construct: purchased in-house DSF (thermal shift) panel per Fedorov et al; IC50 follow-up at Reaction Biology Corp
Procedure: as §1

EPHA5 = biological target: T30, EPHA5 (Homo sapiens, UniProt P54756)
T30 construct: purchased in-house DSF (thermal shift) panel per Fedorov et al; IC50 follow-up at Reaction Biology Corp
Procedure: as §1

MAPK8 = biological target: T31, MAPK8 (Homo sapiens, UniProt P45983)
T31 construct: purchased in-house DSF (thermal shift) panel per Fedorov et al; IC50 follow-up at Reaction Biology Corp
Procedure: as §1

RIOK1 = biological target: T32, RIOK1 (Homo sapiens, UniProt Q9BRS2)
T32 construct: purchased in-house DSF (thermal shift) panel per Fedorov et al; IC50 follow-up at Reaction Biology Corp
T32 sequence (Q9BRS2 whole entry): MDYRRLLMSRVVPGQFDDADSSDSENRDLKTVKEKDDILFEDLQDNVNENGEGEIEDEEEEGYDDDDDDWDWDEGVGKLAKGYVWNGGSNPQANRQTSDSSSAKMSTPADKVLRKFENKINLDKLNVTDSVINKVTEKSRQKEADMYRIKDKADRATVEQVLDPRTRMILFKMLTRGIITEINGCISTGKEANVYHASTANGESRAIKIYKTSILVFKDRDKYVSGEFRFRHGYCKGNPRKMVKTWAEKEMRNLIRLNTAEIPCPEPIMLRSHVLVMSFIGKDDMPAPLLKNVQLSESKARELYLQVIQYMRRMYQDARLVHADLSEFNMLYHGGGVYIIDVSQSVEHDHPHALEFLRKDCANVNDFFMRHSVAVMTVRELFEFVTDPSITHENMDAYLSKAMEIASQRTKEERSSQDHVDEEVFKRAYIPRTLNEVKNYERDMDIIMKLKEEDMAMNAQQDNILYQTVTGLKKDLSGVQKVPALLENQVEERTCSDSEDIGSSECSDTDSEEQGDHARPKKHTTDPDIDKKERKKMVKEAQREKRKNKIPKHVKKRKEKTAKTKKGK
Procedure: as §1

AAK1 = biological target: T33, AAK1 (Homo sapiens, UniProt Q2M2I8)
T33 construct: purchased in-house DSF (thermal shift) panel per Fedorov et al; IC50 follow-up at Reaction Biology Corp
Procedure: as §1

CDKL1 = biological target: T34, CDKL1 (Homo sapiens, UniProt Q00532)
T34 construct: purchased in-house DSF (thermal shift) panel per Fedorov et al; IC50 follow-up at Reaction Biology Corp
Procedure: as §1

CAMK2B = biological target: T35, CAMK2B (Homo sapiens, UniProt Q13554)
T35 construct: purchased in-house DSF (thermal shift) panel per Fedorov et al; IC50 follow-up at Reaction Biology Corp
Procedure: as §1

RIOK2 = biological target: T36, RIOK2 (Homo sapiens, UniProt Q9BVS4)
T36 construct: purchased in-house DSF (thermal shift) panel per Fedorov et al; IC50 follow-up at Reaction Biology Corp
Procedure: as §1

TLK1 = biological target: T37, TLK1 (Homo sapiens, UniProt Q9UKI8)
T37 construct: purchased in-house DSF (thermal shift) panel per Fedorov et al; IC50 follow-up at Reaction Biology Corp
Procedure: as §1

CLK3 = biological target: T38, CLK3 (Homo sapiens, UniProt P49761)
T38 construct: purchased in-house DSF (thermal shift) panel per Fedorov et al
Procedure: as §1

BRD4 = biological target: T39, BRD4 (Homo sapiens, UniProt O60885)
T39 construct: purchased in-house DSF (thermal shift) panel per Fedorov et al; IC50 follow-up at Reaction Biology Corp
Procedure: as §1

PIM1 = biological target: T40, PIM1 (Homo sapiens, UniProt P11309)
T40 construct: purchased in-house DSF (thermal shift) panel per Fedorov et al
Procedure: as §1

MAP2K6 = biological target: T41, MAP2K6 (Homo sapiens, UniProt P52564)
T41 construct: purchased in-house DSF (thermal shift) panel per Fedorov et al
Procedure: as §1

## CCc1cnc(Nc2nc(Cl)ccc2[N+](=O)[O-])nc1N1CCN(Cc2nc3cc(C(F)(F)F)ccc3[nH]2)CC1 [Compound 2]
CAMK1D
  ΔTm at 10 µM: 1.1 °C
STK38L
  ΔTm at 10 µM: -0.2 °C
BMPR2
  ΔTm at 10 µM: -0.4 °C
RPS6KA1
  ΔTm at 10 µM: 0.3 °C
MAPK10
  ΔTm at 10 µM: 0.1 °C
CHEK2
  ΔTm at 10 µM: 0.4 °C
PIM3
  ΔTm at 10 µM: -0.6 °C
BMP2K
  ΔTm at 10 µM: 0 °C
BRPF1
  ΔTm at 10 µM: 0.9 °C
PKMYT1
  ΔTm at 10 µM: -1 °C
CLK1
  ΔTm at 10 µM: 0.3 °C
FES
  ΔTm at 10 µM: 0 °C
GAK
  ΔTm at 10 µM: -0.6 °C
MAPK14
  ΔTm at 10 µM: -0.5 °C
FGFR3
  ΔTm at 10 µM: 0.1 °C
CDK2
  ΔTm at 10 µM: -0.2 °C
ABL1
  ΔTm at 10 µM: 0.6 °C
SRC
  ΔTm at 10 µM: -0.5 °C
MAPKAPK2
  ΔTm at 10 µM: -0.3 °C
FGFR2
  ΔTm at 10 µM: 0.3 °C
MAPK15
  ΔTm at 10 µM: -0.2 °C
NEK1
  ΔTm at 10 µM: -0.7 °C
DYRK2
  ΔTm at 10 µM: 0.1 °C
AURKB
  ΔTm at 10 µM: 0 °C
CAMK2D
  ΔTm at 10 µM: -0.1 °C
BMX
  ΔTm at 10 µM: -0.5 °C
MAPK1
  ΔTm at 10 µM: -0.2 °C
PHKG2
  ΔTm at 10 µM: 0.2 °C
GSK3B
  ΔTm at 10 µM: 0.4 °C
EPHA5
  ΔTm at 10 µM: 0.5 °C
MAPK8
  ΔTm at 10 µM: 0.3 °C
RIOK1
  ΔTm at 10 µM: 0.2 °C
AAK1
  ΔTm at 10 µM: -0.2 °C
CDKL1
  ΔTm at 10 µM: -0.4 °C
CAMK2B
  ΔTm at 10 µM: -2.3 °C
RIOK2
  ΔTm at 10 µM: -0.8 °C
TLK1
  ΔTm at 10 µM: 0 °C
CLK3
  ΔTm at 10 µM: 0.1 °C
BRD4
  ΔTm at 10 µM: -1 °C
PIM1
  ΔTm at 10 µM: -0.6 °C
MAP2K6
  ΔTm at 10 µM: 0.5 °C
